In patent publication US20240325353A1, “COMPOUND FOR TREATMENT OF COGNITIVE DISORDERS” (Syndesi Therapeutics SA, priority 2021, published 2024):

Assay: treatment-emergent adverse events, multiple dose study in young male subjects
Type: in vivo, human
From the text: Details on the adverse events occurring in the study is provided below. As may be seen the doses of interest were safe and well tolerated.

With `O=C1C[C@H](c2cc(F)c(F)c(F)c2)CN1Cn1ncnc1Cl` [compound of example 1, (4R)-1-[(5-chloro-1H-1,2,4-triazol-1-yl)methyl]-4-(3,4,5-trifluorophenyl)pyrrolidin-2-one] the “At least 1 TEAE definitively related to treatment, n (%)” value (5 mg, N = 6) was 0 n (%), the “At least 1 TEAE possibly related to treatment, n (%)” value (5 mg, N = 6) was 0 n (%) and the “At least 1 TEAE probably related to treatment, n (%)” value (5 mg, N = 6) was 0 n (%). For the same compound, the “At least one TEAE, n (%)” value (5 mg, N = 6) was 0 n (%), the “At least 1 TEAE definitively related to treatment, n (%)” value (10 mg, N = 6) was 0 n (%) and the “At least 1 TEAE possibly related to treatment, n (%)” value (10 mg, N = 6) was 0 n (%). For the same compound, the “At least 1 TEAE probably related to treatment, n (%)” value (10 mg, N = 6) was 1 (16.7) n (%), the “At least one TEAE, n (%)” value (10 mg, N = 6) was 2 (33.3) n (%) and the “At least 1 TEAE definitively related to treatment, n (%)” value (20 mg, N = 6) was 0 n (%). For the same compound, the “At least 1 TEAE possibly related to treatment, n (%)” value (20 mg, N = 6) was 4 (66.7) n (%), the “At least 1 TEAE probably related to treatment, n (%)” value (20 mg, N = 6) was 0 n (%) and the “At least one TEAE, n (%)” value (20 mg, N = 6) was 4 (66.7) n (%). The “At least 1 TEAE definitively related to treatment, n (%)” value (all doses, N = 18) was 0 n (%), the “At least 1 TEAE possibly related to treatment, n (%)” value (all doses, N = 18) was 4 (22.2) n (%) and the “At least 1 TEAE probably related to treatment, n (%)” value (all doses, N = 18) was 1 (5.6) n (%). The “At least one TEAE, n (%)” value (all doses, N = 18) was 6 (33.3) n (%).
